Results: patent publication US20040086901A1, “Database for analyzing gene function and method of analyzing gene function by dspa” (priority 2000, published 2004)

Key:
Type in all cases: cell-based, mouse
[1] = test system: NIH3T3 cells overexpressing Ha-ras; assay: MTT cell viability, drug sensitivity of Ha-ras overexpressing cells vs parental line; settings: Ha-ras high-expressing cells / parental cell line, 3 to 4 days
Method: (§1) With regard to the function-known genes, the genes shown in the left column of Table 2 were used. With regard to the drugs, those shown in Table 1 were dissolved in DMSO to an extent of 100-fold of the maximum concentration for the search of the drugs and used. With regard to the cells, incubated NIH3T3 or ras-NIH3T3 cells were used.
(§2) Full-length cDNA of each function-known genes was incorporated into an expression vector (pRc-CMV, etc.) and transfected into NIH3T3 cells by a common method. Transformed cells were isolated using the resistance to G-418 as an index and the expression of the transfected gene in each cell was investigated by Western blotting method to select a highly expressing line.
(§3) Cell viabilities were measured according to the following procedures.
(§4) 1) From the 2nd to the 11th rows of a 96-well plate were filled with DMEM (50 μl). The 12th row was filled with 100 μl of DMEM.
(§5) 2) The 1st row was filled with 98 μl of DMEM.
(§6) 3) Drugs (2 μl each) were added into the 1st row.
(§7) 4) Continuous double-dilution was conducted from the 1st to the 9th rows. Fifty μl were taken out from the 9th row and discarded. The plate was preserved in a CO2 incubator.
(§8) 5) Cells (each high-expressing cells and the parental cell line) were detached from the medium using a trypsin solution, suspended in 10% CS-DMEM and transferred to a test tube and cell numbers (cell/ml) were counted.
(§9) 6) The cells were diluted to a concentration of 1×10^5 cells/ml, and 50 μl of the cell suspension were added to the 1st to the 11th rows of the plate followed by gently stirring.
(§10) 7) The plate was transferred to the CO2 incubator and incubated for 3 to 4 days.
(§11) 8) MTT (5 mg/ml in PBS) (10 μl) was added to the 1st to the 12th rows of the plate and incubated in the CO2 incubator at 37° C. for 4 hours.
(§12) 9) A reaction stop solution (0.04N HCl in isopropanol) (150 μl) was added followed by mixing well and being allowed to stand at room temperature for about 2 hours.
(§13) 10) Coloration of formazan which was a metabolite of the MTT dye was measured using a microplate reader. The measurement wavelength was 574 nm and the reference wavelength was 655 nm. The 10th and the 11th rows of the plate were 100% controls and the 12th row was a 0% control.
(§14) As an index for the sensitivity of highly gene-expressing cells and the parental cell line to various drugs, each of the IC40 values thereof was specified and ratios of the IC40 values were calculated. […] After that, logarithmic values of ratios of IC40 values were calculated from each gene.

[2] = test system: NIH3T3 cells overexpressing erbB2; assay: MTT cell viability, erbB2 overexpressing cells vs parental line; settings: erbB2 high-expressing cells / parental cell line, 3 to 4 days
Method: as §1, §2, §3, §4, §5, §6, §7, §8, §9, §10, §11, §12, §13
(§15) As an index for the sensitivity of highly gene-expressing cells and the parental cell line to various drugs, each of the IC40 values thereof was specified and ratios of the IC40 values were calculated. FIG. 2 and FIG. 3 are the examples where ratios of IC40 values were calculated from a curve showing the dependency on the concentration of the chemical versus the viability. After that, logarithmic values of ratios of IC40 values were calculated from each gene.

[3] = test system: NIH3T3 cells overexpressing Cip-1; assay: MTT cell viability, Cip-1 overexpressing cells vs parental line; settings: Cip-1 high-expressing cells / parental cell line, 3 to 4 days
Method: as §1, §2, §3, §4, §5, §6, §7, §8, §9, §10, §11, §12, §13, §14

[4] = test system: NIH3T3 cells overexpressing p16/INK4A; assay: MTT cell viability, p16/INK4A overexpressing cells vs parental line; settings: p16/INK4A high-expressing cells / parental cell line, 3 to 4 days
Method: as §1, §2, §3, §4, §5, §6, §7, §8, §9, §10, §11, §12, §13, §15

[5] = test system: NIH3T3 cells overexpressing Bax; assay: MTT cell viability, Bax overexpressing cells vs parental line; settings: 3 to 4 days
Method: as §1, §2, §3, §4, §5, §6, §7, §8, §9, §10, §11, §12, §13, §14

[6] = test system: NIH3T3 cells overexpressing CP-antisense; assay: MTT cell viability, CP-antisense cells vs parental line; settings: 3 to 4 days
Method: as §1, §2, §3, §4, §5, §6, §7, §8, §9, §10, §11, §12, §13, §15

[7] = test system: NIH3T3 cells overexpressing DAN; assay: MTT cell viability, DAN overexpressing cells vs parental line; settings: DAN high-expressing cells / parental cell line, 3 to 4 days
Method: as §1, §2, §3, §4, §5, §6, §7, §8, §9, §10, §11, §12, §13, §15

[8] = test system: NIH3T3 cells overexpressing caspase-3; assay: MTT cell viability, caspase-3 overexpressing cells vs parental line; settings: caspase-3 high-expressing cells / parental cell line, 3 to 4 days
Method: as §1, §2, §3, §4, §5, §6, §7, §8, §9, §10, §11, §12, §13, §14

[9] = test system: NIH3T3 cells overexpressing PDGF-R-Del; assay: MTT cell viability, PDGF-R-Del overexpressing cells vs parental line; settings: PDGF-R-Del high-expressing cells / parental cell line, 3 to 4 days
Method: as §1, §2, §3, §4, §5, §6, §7, §8, §9, §10, §11, §12, §13, §15

[10] = test system: NIH3T3 cells overexpressing Gluco-corticoid-R; assay: MTT cell viability, Gluco-corticoid-R overexpressing cells vs parental line; settings: Gluco-corticoid-R high-expressing cells / parental cell line, 3 to 4 days
Method: as §1, §2, §3, §4, §5, §6, §7, §8, §9, §10, §11, §12, §13, §14

[11] = test system: NIH3T3 cells overexpressing PKCepsilon-KN; assay: MTT cell viability, PKCepsilon-KN overexpressing cells vs parental line; settings: 3 to 4 days
Method: as §1, §2, §3, §4, §5, §6, §7, §8, §9, §10, §11, §12, §13, §14

[12] = test system: NIH3T3 cells, TPA (PKC downreg); assay: MTT cell viability, TPA (PKC downreg) cells vs parental line; settings: 3 to 4 days
Method: as §1, §2, §3, §4, §5, §6, §7, §8, §9, §10, §11, §12, §13, §15

[13] = test system: NIH3T3 cells overexpressing HSP4O; assay: MTT cell viability, HSP4O overexpressing cells vs parental line; settings: HSP4O high-expressing cells / parental cell line, 3 to 4 days
Method: as §1, §2, §3, §4, §5, §6, §7, §8, §9, §10, §11, §12, §13, §15

[14] = test system: NIH3T3 cells overexpressing HSP9O; assay: MTT cell viability, HSP9O overexpressing cells vs parental line; settings: HSP9O high-expressing cells / parental cell line, 3 to 4 days
Method: as §1, §2, §3, §4, §5, §6, §7, §8, §9, §10, §11, §12, §13, §15

[15] = test system: NIH3T3 cells overexpressing HNF3b; assay: MTT cell viability, HNF3b overexpressing cells vs parental line; settings: HNF3b high-expressing cells / parental cell line, 3 to 4 days
Method: as §1, §2, §3, §4, §5, §6, §7, §8, §9, §10, §11, §12, §13, §14

[16] = test system: NIH3T3 cells overexpressing HNF4; assay: MTT cell viability, HNF4 overexpressing cells vs parental line; settings: HNF4 high-expressing cells / parental cell line, 3 to 4 days
Method: as §1, §2, §3, §4, §5, §6, §7, §8, §9, §10, §11, §12, §13, §14

[17] = test system: NIH3T3 cells overexpressing coup; assay: MTT cell viability, coup overexpressing cells vs parental line; settings: coup high-expressing cells / parental cell line, 3 to 4 days
Method: as §1, §2, §3, §4, §5, §6, §7, §8, §9, §10, §11, §12, §13, §15

[18] = test system: NIH3T3 cells overexpressing p33/ING1; assay: MTT cell viability, p33/ING1 overexpressing cells vs parental line; settings: p33/ING1 high-expressing cells / parental cell line, 3 to 4 days
Method: as §1, §2, §3, §4, §5, §6, §7, §8, §9, §10, §11, §12, §13, §15

[19] = test system: NIH3T3 cells overexpressing p38-DN; assay: MTT cell viability, p38-DN overexpressing cells vs parental line; settings: p38-DN high-expressing cells / parental cell line, 3 to 4 days
Method: as §1, §2, §3, §4, §5, §6, §7, §8, §9, §10, §11, §12, §13, §14

[20] = Bax (first of two Bax lines) high-expressing cells / parental cell line
[21] = Bax (second of two Bax lines) high-expressing cells / parental cell line
[22] = PKCepsilon-KN (first of two lines) high-expressing cells / parental cell line
[23] = PKCepsilon-KN (second of two lines) high-expressing cells / parental cell line

SMILES	logarithmic value of ratio of IC40 values [1]	logarithmic value of ratio of IC40 values [2]	logarithmic value of ratio of IC40 values [3]	logarithmic value of ratio of IC40 values [4]	logarithmic value of ratio of IC40 values [5, 20]	logarithmic value of ratio of IC40 values [5, 21]	logarithmic value of ratio of IC40 values [6]	logarithmic value of ratio of IC40 values [7]	logarithmic value of ratio of IC40 values [8]	logarithmic value of ratio of IC40 values [9]	logarithmic value of ratio of IC40 values [10]	logarithmic value of ratio of IC40 values [11, 22]	logarithmic value of ratio of IC40 values [11, 23]	logarithmic value of ratio of IC40 values [12]	logarithmic value of ratio of IC40 values [13]	logarithmic value of ratio of IC40 values [15]	logarithmic value of ratio of IC40 values [16]	logarithmic value of ratio of IC40 values [17]	logarithmic value of ratio of IC40 values [18]	logarithmic value of ratio of IC40 values [19]	other results
Nc1nc2nc[nH]c2c(=S)[nH]1 [6-TG, 6-thioguanine]	−0.19	−0.12	0.47	0.46	0.36	−0.05	0.14	0.64	1.16	0.51	0.09	0.00	0.00	0.00	0.50	0.03	0.00	0.45	0.46		logarithmic value of ratio of IC40 values [14]: 0.57
CNc1ccc2oc(C[C@H]3O[C@@]4(CC[C@H]3C)O[C@H]([C@H](C)C(=O)c3ccc[nH]3)[C@H](C)C[C@H]4C)nc2c1C(=O)O [A23187]	−0.28	−0.07	0.04	0.00	0.00	−0.09	−0.36	0.40	0.28	0.15	0.28	−0.28	0.15	−0.22	−0.16	−0.16	0.19	−0.12	0.26	−0.12	logarithmic value of ratio of IC40 values [14]: 0.28
C[C@@H]1C[C@@H]([C@H](O)CC2CC(=O)NC(=O)C2)C(=O)[C@@H](C)C1 [CHX, cycloheximide]	−0.19	−0.64	1.77	0.04	−0.08	0.00	0.00	0.72	0.10	0.39		0.06	0.20	0.00	0.00	0.07	0.22	0.12	−0.30	0.04	logarithmic value of ratio of IC40 values [14]: 0.07
CN(C)CCCn1cc(C2=C(c3c[nH]c4ccccc34)C(=O)NC2=O)c2ccccc21 [GF109203X]	−0.39	−0.40	0.30	0.48	0.22	0.27	0.00	0.65	0.82	0.91	0.27	−0.17	0.32	0.09	−0.07	0.21	0.40	0.46	−0.28	0.58	
C=CC1=C(C)c2cc3[n-]c(cc4nc(cc5[n-]c(cc1n2)c(C)c5CCC(=O)O)C(CCC(=O)O)=C4C)c(C)c3C=C.[Cl-].[Cl-].[Sn+4] [SnPP]	0.28	−0.25	−0.66	−0.05	0.17	0.10	0.10	−0.49	−0.40	0.08	0.00	0.27	0.24	−0.20	0.28	0.24	0.46	0.51	−0.23	0.10	
CC(C)(C)C(=O)Oc1ccc(S(=O)(=O)Nc2ccccc2C(=O)NCC(=O)O)cc1 [compound 5046]		0.80	−0.14	0.22	−0.07		−0.06	0.26	0.40	−0.07		−0.21		−0.10	−0.15	−0.25		−0.04	−0.25	−0.04	logarithmic value of ratio of IC40 values [14]: 0.52
